Ends that are not written are not given here.
Columns and labels:
[1] = target: target 13-mer (GP-1), amino terminus of a membrane glycoprotein; assay: HPLAC zonal elution on column with immobilized target 13-mer (GP-1); assay type: binding, rat; conditions: for binding constants (in words): text summary of Table 4; for Km: zonal elution, immobilized GP-1, 100 mM NH4OAc pH 5.7, flow rate 1.0 ml/min, extrapolated to [P]=0, read-out: Equilibrium binding constant (dissociation constant) KM/P
Experimental: (§1) The recognition of the target peptide by the anti-sense peptides was evaluated by high performance affinity chroma tography (I. Chaiken, Ed., "Analytical Affinity Chromatography," CRC Press, Boca Raton, 1987). This system was chosen because it allows direct measurement of molecular interactions and it is not limited by either molecular size or by the need for a specialized detection system. The target 13-mer (GP-1) was immobilized on an affinity support system. The binding properties to the target peptide were evaluated by zonal elution methods (FIG. III) (Y. Shai et al, Biochem., 26:669 (1987)). The anti-sense recognition peptides were eluted on the sense column and the retardation volume of the peptide (V) was compared to the column void volume (Vo). Equilibrium binding constants were determined by loading varying amounts of the anti-sense peptides on the column and employing the equation: [formula] where KM/P represents the dissociation constant for the binding process,
MT is the amount of target peptide immobilized and
[P]represents the amount of recognition peptide eluted E. Swaisgood et al, Biochem., 25:4148 (1986)).
The KM/P values are obtained subsequent to extrapolation to [P]=0.
Values were obtained by zonal elution on a column with immobilized target
peptide (GP1) equilibrated with 100 mM NH4 OAc, pH = 5.7 with column
flow rate of 1.0 ml/min.

[2] = target: putative ATP binding region of the raf (raf 357-376) (Rattus norvegicus, UniProt P11345); assay: HPLAC on immobilized raf ATP binding region
Experimental: The values of the dissociation constants (KM/P) are obtained in 0.1 M NH4 CH3 COO pH 5.7.
as §1, with “The anti-sense recognition peptides were eluted on the sense column and the retardation volume of the peptide (V) was compared to the column void volume (Vo).” left out
In order to evaluate the general applicability of the complementary scoring program, a comparison was made between the DNA derived anti-sense peptide and a computer generated recognition-peptide. […] To compare the relative affinities of the DNA derived anti-sense peptide (FAR-[…]) and the computer generated recognition peptide (FARCG--[…]), the raf ATP binding region ([…]) was immobilized on an affinity support and the two anti-sense peptides evaluated by HPLAC techniques.

Km ([2]; immobilized raf ATP binding region GSGSFGTVYKGKWHGDVAVK, 0.1 M NH4CH3COO pH 5.7, read-out: Equilibrium binding constant KM/P) | fold higher affinity for the target peptide compared to the DNA derived anti-sense peptide ([2]; relative to FAR) | Sequence | binding constants (in words) [1] | Km [1]
 |  | AAQHGGGLGVQVE [CODON-1, AAQHGGGLGVQVE] | millimolar range | 920 µM
 |  | AAQHGRGFGIQIE [CODON-2] | millimolar range | 460 µM
8 µM | ~50 fold | FHGHISMPFAFVYSSKAAAA [FAR-CG] |  | 
